Patent US20090215742A1, “AMIDE […]” (PFIZER, INC., priority 2005, published 2009)

Biological target: T1, HSP-90 (Homo sapiens, UniProt P07900)
T1 construct: fused on or other part: 6-His tag at the C-terminus
Experiment: HSP-90 SPA (scintillation proximity assay) competition binding assay, displacement of tritiated propyl-Geldanamycin
Conditions: for inhibition at 1 µM: read-out: % inhibition @ 1 μM; for inhibition at 10 µM: read-out: % inhibition @ 10 μM
Experimental: Compounds of the present invention were evaluated for potency against HSP-90 using a SPA (scintillation proximity assay) competition binding assay. Briefly, either full length or N-terminal HSP-90 that contains a 6-His tag on its C-terminus binds to copper on Yttrium-silicate scintillant beads via the His-tag. Tritiated propyl-Geldanamycin (pGA), whose structure is shown below, is an analog of a natural inhibitor of HSP-90 called Geldanamycin.
Tritiated pGA, which contains a tritiated propyl-amine group added at the #17 position, binds HSP-90 and brings the isotope into proximity with the beads. […] The beta signal emitted from the isotope excites the scintillant, which creates a measurable signal. As competitive compounds are added to the assay mixture, they compete with bound tritiated pGA at the ATP-binding site on the N-terminal of HSP-90. When a compound displaces the labeled pGA, the signal is reduced (the beta-particles are no longer in proximity with the bead). This reduction in signal is used to quantify the extent to which the inhibitor/compound is competitive with pGA.
Typical reaction solutions contained 30 nM HSP-90 and 200 nM ^3H-pGA in binding buffer (100 mM Hepes, pH 7.5 and 150 mM KCl). […] Inhibitors were added to the HSP-90/^3H-pGA solutions at eleven different concentrations for Ki determinations. […] To determine percent inhibition, the compound was tested at 1 and 10 μM. The final DMSO in the samples was 4%. Copper-Ysi beads (Amersham, #RPNQ0096) that have been diluted in binding buffer were added to each well to give a final concentration of 100 μg/well. The plates were sealed, covered with a foil-covered lid and shaken for 30 minutes at room temperature. The beads were allowed to settle for 30 minutes after which the plates were counted using a Packard TopCount NXT instrument. This procedure has also been adapted for medium throughput using a Beckman Biomek FX. Samples were run in duplicate and on two separate days to assure an accurate value of Ki.
For Ki determinations, the corrected cpm's (actual cpm's minus background) were plotted vs. inhibitor concentration using GraphPad Prism software. […] The IC50 was then used to calculate the Ki by using the Cheng-Prusoff equation: […]
This is normally true when the observed IC50 is […] the HSP-90 concentration. For a tight binding inhibitor, the following equation can be applied: […]
EL and ELo are the radioligand-HSP-90 complexes in the presence and absence of inhibitor, respectively. EL/ELo represents the fractional signal in the presence of inhibitor. Io, Eo, and Lo are the inhibitor, HSP-90, and radioligand concentrations, respectively.

| SMILES | inhibition at 1 µM | inhibition at 10 µM |
| --- | --- | --- |
| CCc1nccc(-c2ccc(O)c(C(=O)N3Cc4ccccc4C3)c2)n1 [Example 34, 2-(1,3-dihydro-2H-isoindol-2-ylcarbonyl)-4-(2-ethylpyrimidin-4-yl)phenol] | -3.1% | 43% |
| O=C(c1cccc2cccnc12)N1Cc2ccccc2C1 [Example 187, 8-(1,3-dihydro-2H-isoindol-2-ylcarbonyl) quinoline] | 0% |  |
| O=C(c1ccc(O)cc1O)N1CCn2cnnc2C1 [Example 136, 4-(5,6-dihydro[1,2,4]triazolo[4,3-a]pyrazin-7(8H)-ylcarbonyl)benzene-1,3-diol] | 10.4% | 47.8% |
| CN(C(=O)c1ccc(O)cc1O)[C@@H]1CCCC[C@H]1O [Example 40, 2,4-dihydroxy-N-(2-hydroxycyclohexyl)-N-methylbenzamide] | 13.2% | 49.1% |
| CCOc1cc2c(cc1OCC)CN(C(=O)c1ccc(O)cc1O)CC2 [Example 56, 4-[(6,7-diethoxy-3,4-dihydroisoquinolin-2(1H)-yl)carbonyl]benzene-1,3-diol] | 27% | 73% |
| O=C(c1ccc(O)cc1O)N1CCC2(CC1)CC(OCc1ccccc1F)CO2 (stereo not drawn) [Example 51, 4-({3-[(2-fluorobenzyl)oxy]-1-oxa-8-azaspiro[4.5]dec-8-yl}carbonyl)benzene-1,3-diol] | 22.1% | 70.9% |
| O=C(c1ccc(O)cc1O)N1CCC(c2ccc(F)cc2)C1 (stereo not drawn) [Example 95, 4-{[3-(4-fluorophenyl)pyrrolidin-1-yl]carbonyl}benzene-1,3-diol] | 22.7% | 70.3% |
| O=C(c1ccc(O)cc1O)N1CCC(Oc2ccc(Cl)cc2)CC1 [Example 68, 4-{[4-(4-chlorophenoxy)piperidin-1-yl]carbonyl}benzene-1,3-diol] | 37.2% | 78.6% |
| O=C(c1ccc(O)cc1O)N1CCOCC(O)(COCC2CC2)C1 (stereo not drawn) [Example 38] | 27.4% | 68.4% |
| O=C(c1ccc(O)cc1O)N1CCCCC1c1nccs1 (stereo not drawn) [Example 62, 4-{[2-(1,3-thiazol-2-yl)piperidin-1-yl]carbonyl}benzene 1,3-diol] | 12% | 64.4% |
| O=C(c1ccc(O)cc1O)N1CCC(O)(c2ccc(Cl)c(C(F)(F)F)c2)CC1 [Example 78, 4-({4-[4-chloro-3-(trifluoromethyl)phenyl]-4-hydroxypiperidin-1-yl}carbonyl)benzene-1,3-diol] | 17.7% | 68.1% |
| COc1ccccc1-c1nnc([C@H]2CCCN2C(=O)c2ccc(O)cc2O)o1 [Example 92, 4-({2-[5-(2-methoxyphenyl)-1,3,4-oxadiazol-2-yl]pyrrolidin-1-yl}carbonyl)benzene-1,3-diol] | 9% | 22.4% |
| COCc1nccc(C2CCCN(C(=O)c3ccc(O)cc3O)C2)n1 (stereo not drawn) [Example 64, 4-({3-[2-(methoxymethyl)pyrimidin-4-yl]piperidin-1-yl}carbonyl)benzene-1,3-diol] | 5.9% | 59.2% |
| O=C1CCCN1Cc1nnc2n1CCN(C(=O)c1ccc(O)cc1O)CC2 [Example 91, 1-{[7-(2,4-dihydroxybenzoyl)-6,7,8,9-tetrahydro-5H-[1,2,4]triazolo[4,3-d][1,4]diazepin-3-yl]methyl}pyrrolidin-2-one] | -7.3% | 12.2% |
| O=C(c1ccc(O)cc1O)N1CCC2(CC1)OCc1ccccc12 [Example 80, 4-(1′H,3H-spiro[2-benzofuran-1,4′-piperidin]-1′-ylcarbonyl)benzene-1,3-diol] | 42% | 81.3% |
| O=C(c1ccc(O)cc1O)N1CCC(CCc2ccccc2)CC1 [Example 49, 4-{[4-(2-phenylethyl)piperidin-1-yl]carbonyl}benzene-1,3-diol] | 61.2% | 86.3% |
| C[C@H](c1cccc2ccccc12)N(C)C(=O)c1ccc(O)cc1O [Example 81, 2,4-dihydroxy-N-methyl-N-[1-(1-naphthyl)ethyl]benzamide] | 29% | 73.8% |
| O=C(c1ccc(O)cc1O)N1CCc2nnc(-c3cccc4ccccc34)n2CC1 [Example 134, (2,4-Dihydroxy-phenyl)-(3-naphthalen-1-yl-4,5,7,8-tetrahydro-1,2,3a,6-tetraaza-azulen-6-yl)-methanone] | 3.7% | 37.6% |
| O=C(c1ccc(O)cc1O)N1CCC(COc2cccc(Cl)c2)C1 (stereo not drawn) [Example 87, 4-({3-[(3-chlorophenoxy)methyl]pyrrolidin-1-yl}carbonyl)benzene-1,3-diol] | 36.7% | 65% |
| Cc1ccc(OC2CCN(C(=O)c3ccc(O)cc3O)CC2)cc1 [Example 74, 4-{[4-(4-methylphenoxy)piperidin-1-yl]carbonyl}benzene-1,3-diol] | 47.7% | 80.7% |
| O=C(c1ccc(O)cc1O)N1CCC(c2ncccn2)CC1 [Example 86, 4-[(4-pyrimidin-2-ylpiperidin-1-yl)carbonyl]benzene-1,3-diol] | 23.9% | 59.9% |
| CN(Cc1nc2ccccc2o1)C(=O)c1ccc(O)cc1O [Example 123, N-(1,3-benzoxazol-2-ylmethyl)-2,4-dihydroxy-N-methylbenzamide] | 25.5% | 65.6% |
| O=C(c1ccc(O)cc1O)N1CCOCC2(CC(c3cc(F)cc(F)c3)=NO2)C1 (stereo not drawn) [Example 128, 4-{[3-(3,5-difluorophenyl)-1,7-dioxa-2,10-diazaspiro[4.6]undec-2-en-10-yl]carbonyl}benzene-1,3-diol] | 31.2% | 73.1% |
| O=C(c1ccc(O)cc1O)N1CCOCC2(CC(c3c(F)cccc3F)=NO2)C1 (stereo not drawn) [Example 131, 4-{[3-(2,6-difluorophenyl)-1,7-dioxa-2,10-diazaspiro[4.6]undec-2-en-10-yl]carbonyl}benzene-1,3-diol] | 24.7% | 69.6% |
| O=C(c1ccc(O)cc1O)N1CCC(CCc2ncccn2)CC1 [Example 46, 4-{[4-(2-pyrimidin-2-ylethyl)piperidin-1-yl]carbonyl}benzene-1,3-diol] | 44.9% | 77.1% |
| O=C(c1ccc(O)cc1O)N1CCC(c2ccc(F)cc2)CC1 [Example 70, 4-{[4-(4-fluorophenyl)piperidin-1-yl]carbonyl}benzene-1,3-diol] | 40.2% | 79.1% |
| O=C(c1ccc(O)cc1O)N1CCCC1 [Example 90, 4-(pyrrolidin-1-ylcarbonyl)benzene-1,3-diol] | 23.2% | 65.4% |
| O=C(c1ccc(O)cc1O)N1CCC(CCc2cccc(Cl)c2)CC1 [Example 48, 4-({4-[2-(3-chlorophenyl)ethyl]piperidin-1-yl}carbonyl)benzene-1,3-diol] | 63.3% | 87.5% |
| O=C(c1ccc(O)cc1O)N1CCOC(COc2ccc(F)cc2Cl)C1 (stereo not drawn) [Example 115, 4-({2-[(2-chloro-4-fluorophenoxy)methyl]morpholin-4-yl}carbonyl)benzene-1,3-diol] | 60.3% | 83.7% |
